# From US11149028B2, “Methods for treating melanoma using small molecules” (NOVA SOUTHEASTERN UNIVERSITY, priority 2016, dated 2021)
# “Also recorded” adds a separate entry of the source.
# What was measured:
# WM266-4 cells [1] = experiment: Annexin V flow cytometry assay; assay type: cell-based, human; details: 4 h
# Description: After 4, 24 and 48 hrs of compound exposure the adherent and floating cells were combined and stained using the TACS Annexin V-FITC Apoptosis detection kit (Trevigen Inc, Gaithersburg, Md., USA) using manufacturer's protocol. Viable, necrotic, early and late apoptotic cells were counted using Accuri flow cytometer as per the manufacturer instructions.
# M14 cells = details: time course 4-72 h; time stated at the place
# Method: ApoTox-Glo™ Triplex Assay which allows one to simultaneously assess the effect of small molecules on cell viability, toxicity, caspase activity, and cell cycle all in the same well (Niles, A. L.; Moravec, R. A.; Riss, T. L. In vitro viability and cytotoxicity testing and same-well multi-parametric combinations for high throughput screening. Curr Chem Genomics 2009, 3, 33-41) was utilized. First, a mixture of 2 fluorogenic substrates was added to cells. GF-AFC substrate is cell-permeant and non-lytic to cells, allowing the measurement of active protease inside live cells. The second substrate (bis-AAF-R110 Substrate) is not cell-permeable and is only cleaved when proteases are released from cells due to the loss of membrane integrity typical of cell death. This step generates an inversely correlated measurement of cell viability and toxicity.
# The second addition is luminogenic DEVD-peptide substrate for caspase-3/7 and Ultra-Glo™ Recombinant Thermostable Luciferase. Caspase-3/7 cleavage of the substrate generates a luminescent signal which correlates with caspase-3/7 activation as a key indicator of apoptosis. As markers for cytotoxicity and apoptosis are transient, the assay was conducted in time course format with time points at 4, 24, 48, and 72 h.
# M14 #5 cells were plated in 384-well format at a density of 1,250 cells in 5 μL of serum-free DMEM media and incubated at 37° C. in 5% CO2 for 4 h. Control and test compounds were serially diluted in a ratio of 1:3 and added to wells in 4 μL. […] Plates were incubated at 37° C. in 5% CO2 for 4, 24, 48, and 72 h. At the end of each time point Viability/Cytotoxicity™ Reagent was prepared containing 400 μM glycylphenylalanyl-aminofluorocoumarin (GF-AFC) substrate (cleavable by live cell proteases) and 400 μM bis-alanylalanyl-phenylalanyl-rhodamine 110 (bis-AAF-R110) substrate (cleavable by dead cell proteases). 4 μL of the Viability/Cytotoxicity™ Reagent was used per well. The plate was incubated for 30 min at 37° C. Fluorescence was read at λEx=400 nm and λEm=505 nm for GF-AFC and λEx=485 nm and λEm=520 nm for bis-AAF-R110 on the BioTek Synergy™ 4 Multi-Mode Microplate Reader. Caspase-Glo® 3/7 Reagent was then added in 12 μL volume. The plate was incubated for 30 min at room temperature and luminescence was measured on the BioTek Synergy™ 4 Multi-Mode Microplate Reader.
# WM266-4 cells [2] = experiment: CellTiter-Glo cell viability assay, WM266-4 (including rescue assays); assay type: cell-based, human
# Method: (§1) Cells were plated in 384-well plates in 8 μL of media. Test compounds and dabrafenib (pharmacological assay control) were prepared as 10-point, 1:3 serial dilutions starting at 300 μM, then added to the cells (4 μL per well) using the Biomek Plates were incubated for 72 h at 37° C., 5% CO2 and 95% relative humidity. After incubation, 4 μL of CellTiter-Glo® (Promega cat #: G7570) were added to each well, and incubated for 15 min at room temperature. Luminescence was recorded using a Biotek Synergy H4 multimode microplate reader. Viability was expressed as a percentage relative to wells containing media only (0%) and wells containing cells treated with DMSO only (100%). Three parameters were calculated on a per-plate basis: (a) the signal-to-background ratio (SB); (b) the coefficient for variation [CV; CV=(standard deviation/mean)×100)] for all compound test wells; and (c) the Z′-factor (18). The IC50 value of the pharmacological control (dabrafenib, LC Laboratories #G-4408) was also calculated to ascertain the assay robustness. In case of viability rescue assays, cells were pre-treated with caspase, calpain, and autophagy inhibitors for 1-3 h before addition of test compounds. Time course viability assay was done with luminescence measurements performed at 4, 24, 48, and 72 h.
# calpain in WM266-4 cells = experiment: Calpain activity assay (Calpain-Glo); assay type: cell-based, human; details: for calpain activity induced by 2155-14 after calpain inhibitor pre-treatment: 25 μM inhibitor, 100 μM 2155-14
# Method: The Calpain-Glo Protease Assay (Promega cat #) was used to measure the calpain enzyme activity in live cells, according to the manufacturer's instructions. 1,250 of WM-266-4 cells were plated in 384-well white TC-treated plates in 5 μL of serum-free EMEM media. The cells were incubated overnight at 37° C., 5% CO2 and 95% relative humidity and 5 μL of test compounds 2155-14, (100 μM), calpain inhibitor III and PD151746 (25 μM) were added alone or in combination and incubated at 37° C., 5% CO2, and 95% relative humidity for 0.5, 4, and 24 h. After incubation, 10 μL, of a freshly prepared dilution of the Calpain-Glo Reagent stock solution (consisting of Suc-LLVY-Glo™ substrate, Calpain-Glo™ buffer, Luciferin Detection Reagent, and CaCl2) was added to cells at above mentioned times and luminescence was recorded with a Neo 2 microplate reader (Biotek Inc). All experiments were performed in triplicate and the values provided are the calculated average of at least three independent experiments.
# [3] = tested on: mouse embryonic fibroblasts (MEF); experiment: Viability of mouse embryonic fibroblasts; assay type: cell-based
# Method: as §1
# [4] = tested on: LC3-II and beclin-1 in WM266-4 cells; experiment: Western blotting for LC3 and beclin-1, WM266-4; assay type: cell-based, human; details: 100 μM, 24 h
# Method: 1×10^6 of WM266-4 or M14 cells were seeded in 3 mL of E-MEM or RPMI-1640 medium supplemented with 10% FBS and 1% penicillin/streptomycin in 6 cm plates. […] After washing with TBST, the membranes were treated with chemilumiscent horseradish peroxidase detection reagent (Thermo Scientific, Cat #32209) and exposed to autoradiography film (Denville Scientific, Inc., Metuchen, N.J., USA, cat #E3018). ImageJ software (NIH, Bethesda, Md.) was used to quantify the intensity of proteins bands. The protein bands were normalized against loading controls (β-actin) and expressed as a fold of an untreated control.
# [5] = tested on: cleaved lamin A/C in WM266-4 cells; experiment: Western blotting for lamin A/C cleavage; assay type: cell-based, human; details: 100 μM, 24 h
# Method: 1×10^6 of WM266-4 or M14 cells were seeded in 3 mL of E-MEM or RPMI-1640 medium supplemented with 10% FBS and 1% penicillin/streptomycin in 6 cm plates. […] After washing with TBST, the membranes were treated with chemilumiscent horseradish peroxidase detection reagent (Thermo Scientific, Cat #32209) and exposed to autoradiography film (Denville Scientific, Inc., Metuchen, N.J., USA, cat #E3018). ImageJ software (NIH, Bethesda, Md.) was used to quantify the intensity of proteins bands. The protein bands were normalized against loading controls.
molecule,measurement,setting,value
"CN[C@@H]1C[C@H]2O[C@@](C)([C@@H]1OC)n1c3ccccc3c3c4c(c5c6ccccc6n2c5c31)C(=O)NC4 [staurosporine, reference compound]",apoptosis detected,WM266-4 cells [1],apoptosis was detected only in staurosporine-treated cells
"CC(C)(C)c1ccc(C(O)CCCN2CCC(C(O)(c3ccccc3)c3ccccc3)CC2)cc1 (stereo not shown) [terfenadine, reference compound]",ApoTox caspase-3/7 activity,M14 cells,early caspase activity spike (4-24 h)
same,ApoTox viability (live cell protease),M14 cells,early loss of cell viability
"C[C@H](CCC(=O)O)C[C@H](C)C[C@H](C)C(=O)/C=C(\O)[C@H](C)C[C@H](C)C/C=C/[C@@H](C)[C@@H](O)[C@@H](C)[C@@H](O)C[C@@H]1CC[C@@](C)([C@H]2CC[C@@](C)([C@@H](C)O)O2)O1 [ionomycin, reference compound]",ApoTox caspase-3/7 activity,M14 cells,did not induce a spike in caspase activity at any of the time points
same,ApoTox cytotoxicity,M14 cells,strong cytotoxicity response
same,ApoTox viability (live cell protease),M14 cells,dose dependent loss of viability as early as 4 h
MDL-28170 [reference compound],"viability, combination with 2155-14","WM266-4 cells [2]; 25 μM inhibitor, 100 μM 2155-14",even more pronounced negative effect on viability of cells than either compound alone
same,calpain activity induced by 2155-14 after calpain inhibitor pre-treatment,calpain in WM266-4 cells,shut down calpain activity induced by 2155-14 at 30 min and 4 h but not at 24 h
"CCCS(=O)(=O)Nc1ccc(F)c(C(=O)c2c[nH]c3ncc(-c4ccc(Cl)cc4)cc23)c1F [vemurafenib, reference compound]",toxicity to mouse embryonic fibroblasts,[3],toxic
"O=C(O)/C(S)=C/c1c[nH]c2ccc(F)cc12 [PD151746, reference compound]",cell viability restored in presence of 2155-14,"WM266-4 cells [2]; 24 h, 25 μM inhibitor, 100 μM 2155-14",~75%
same,cell viability restored in presence of 2155-14,"WM266-4 cells [2]; 48 h, 25 μM inhibitor, 100 μM 2155-14",~50%
same,cell viability in presence of 2155-14,"WM266-4 cells [2]; 72 h, 25 μM inhibitor, 100 μM 2155-14",all cells were dead
same,calpain activity induced by 2155-14 after calpain inhibitor pre-treatment,calpain in WM266-4 cells,shut down calpain activity induced by 2155-14 at 30 min and 4 h but not at 24 h
"CCCNC(=O)[C@H]1O[C@@H]1C(=O)N[C@H](C(=O)N1CCC[C@H]1C(=O)O)[C@@H](C)CC [CA074, reference compound]",viability of WM266-4 cells,"WM266-4 cells [2]; 24 h, 20 μM cathepsin B inhibitor",25%
same,increase of calpain activity,"calpain in WM266-4 cells; 20 μM, from 30 min, persisted at 4 and 24 h",~5 fold
"O=C(CCCC[C@@H]1SC[C@@H]2NC(=O)N[C@@H]21)NCCCC[C@@H](CN1CCC[C@H]1CN1C(=O)C(=O)NC[C@@H]1Cc1ccccc1)N1C[C@H](Cc2ccc(O)cc2)N(CCc2ccccc2)C(=O)C1=O [Compound 2529-5, N—((S)-6-((S)-2-(((S)-6-benzyl-2,3-dioxopiperazin-1-yl)methyl)pyrrolidin-1-yl)-5-((S)-5-(4-hydroxybenzyl)-2,3-dioxo-4-phenethylpiperazin-1-yl)hexyl)-5-((3aS,4S,6aR)-2-oxohexahydro-1H-thieno[3,4-d]imidazol-4-yl)pentanamide]",IC50,"WM266-4 cells [2]; Homo sapiens, WM 266-4, 72 h, 72 h",> 100 µM
same,cytotoxicity at 100 µM,"WM266-4 cells [2]; Homo sapiens, WM 266-4, 100 μM, 72 h, read-out: maximal inhibition of cell viability",37%
same,LC3-II level,[4],did not significantly increase
same,cleaved lamin A/C level,[5],did not significantly increase; also recorded: had no effect on cleavage of lamin A/C
